{
  "source": "patent US8535897B2",
  "about": "“Assays for non-apoptotic cell death and uses thereof” (The Trustees of Columbia University in the City of New York, priority 2006, dated 2013)",
  "key": {"several tumor cell lines": {"system": "several tumor cell lines", "assay": "Potency in several tumor cell lines", "type": "cell-based"}, "HT1080": {"system": "HT1080", "assay": "Response of tumor cell lines to erastin (dose-response)", "type": "cell-based, human", "details": "HT 1080", "procedure": "(§1) In certain aspects, the invention provides that erastin is lethal to tumor cells with activating mutations in proteins downstream of RAS proteins. Dose-response of 30 tumor cell lines to erastin was measured, and at least 50% inhibition of cell viability in 19 of the 30 tumor cell lines was formed. Numerous sarcoma-derived tumor cell lines were sensitive to erastin, consistent with the fact that erastin was discovered in an engineered tumor cell line created from human fibroblasts. Non-limiting examples include, HT1080 fibrosarcoma cells. HT1080 fibrosarcoma cells, which have a known activating mutation in NRAS, (Plattner, R. et al. Differential contribution of the ERK and JNK mitogen-activated protein kinase cascades to Ras transformation of HT1080 fibrosarcoma and DLD-1 colon carcinoma cells. Oncogene. 18: 1807-17 (1999), were quite sensitive to erastin. In order to determine whether RAS-activated signaling was modulated in cell lines that respond to erastin, the phosphorylation status of ERK1/2 in 12 sarcoma cell lines with a range of sensitivities to erastin was evaluated. In certain aspects, the invention provides a non-zero correlation, such as for example, a correlation coefficient of 0.41, between ERK1/2 phosphorylation status and erastin sensitivity in these cell lines.\n(§2) Given that oncogenic RAS activates at least four downstream pathways, analysis was performed to identify which downstream effects were necessary for erastin sensitivity. In certain embodiments, the invention provides that erastin inhibits growth and kills genuine tumor cells with RAS mutations. In other embodiments, the invention provides measures of the dose-response of 29 tumor cell lines to erastin, wherein there is at least 50% inhibition of viability in 18 of the cell lines (Table 4). Numerous sarcoma-derived tumor cell lines were sensitive to erastin, consistent with the fact that erastin was discovered in an engineered tumor cell line created from human fibroblasts."}, "BJEH": {"system": "BJEH", "assay": "Response of tumor cell lines to erastin (dose-response)", "type": "cell-based, human", "details": "BJ-TERT", "procedure": "as §1, §2"}, "BJELR": {"system": "BJELR", "assay": "Response of tumor cell lines to erastin (dose-response)", "type": "cell-based, human", "details": "BJ-TERT/LT/ST/RASV12", "procedure": "as §1, §2"}, "A673": {"system": "A673", "assay": "Response of tumor cell lines to erastin (dose-response)", "type": "cell-based, human", "procedure": "as §1, §2"}, "VDAC2": {"system": "VDAC2", "assay": "VDAC isoform levels after erastin treatment (quantitative 2D western)", "type": "cell-based, human", "details": "BJ-TERT/LT/ST/RASV12 cells", "excerpt": "(§3) (a) Quantitative western blot of VDAC/eif4E protein ratio in engineered BJ-derived cells. (b) Identification of VDAC isoforms in BJ-TERT/LT/ST/RAS^V12 cells using 2-D electrophoresis. i) VDAC1, VDAC2 and VDAC3 were detected by a rabbit polyclonal VDAC antibody (Abcam/ab3434), ii) VDAC1 was detected by a mouse monoclonal VDAC1 antibody (Calbiochem/529534), iii) VDAC2 was detected by a goat polyclonal VDAC2 antibody (Abcam/ab22170), iv) An illustration of 3 isoforms of VDAC separated by the 2-D gel electrophoresis. (c) BJ-TERT/LT/ST/RASV12 cells were treated with erastin for the indicated time and levels of each VDAC isoform determined by quantitative 2D western. (d,e) Infection with VDAC3 shRNA protects erastin-treated cells. 293T cells were transfected with shRNA-plasmid construct using FuGene and viral supernatant transferred to HT1080 cells, and treated with erastin dilutions and viability measured using Trypan Blue exclusion. […] (f) Quantitative RT-PCR measurements of mRNA levels of the 3 VDAC isoforms after infection with shVDAC3. Knockdown was determined by normalizing to the levels in the shGFP-infected control. […] (g) Mitochondria were purified from yeast expressing murine VDAC3 in place of yeast VDAC, and the rate of NADH uptake determined in the presence or absence of erastin, or in shocked mitochondria in which the outer membrane was disrupted. […]"}, "VDAC3": {"system": "VDAC3", "assay": "VDAC isoform levels after erastin treatment (quantitative 2D western)", "type": "cell-based, human", "details": "BJ-TERT/LT/ST/RASV12 cells", "excerpt": "as §3"}},
  "data": [
    {"smiles": "CCOc1ccccc1-n1c(C(C)N2CCN(C(=O)COc3ccc(Cl)cc3)CC2)nc2ccccc2c1=O", "note": "(stereo not shown) [erastin]", "values": [
      {"measurement": "potency", "setting": "several tumor cell lines", "value": "1 to 5", "unit": "µM"},
      {"measurement": "Erastin Sensitivity (maximum killing induced by erastin)", "setting": "HT1080", "value": 0.98},
      {"measurement": "Erastin Sensitivity (maximum killing induced by erastin)", "setting": "BJEH", "value": 0.22},
      {"measurement": "Erastin Sensitivity (maximum killing induced by erastin)", "setting": "BJELR", "value": 1.00},
      {"measurement": "Erastin Sensitivity (maximum killing induced by erastin)", "setting": "A673", "value": 0.54},
      {"measurement": "treatment time after which VDAC2 became undetectable", "setting": "VDAC2", "value": 10, "unit": "h"},
      {"measurement": "treatment time after which VDAC3 was no longer detectable", "setting": "VDAC3", "value": 8, "unit": "h"}
    ]}
  ]
}
